We go through 1 molecule from patent US20200276181A1, “THIENOISOQUINOLINES AND THEIR DERIVATIVES FOR TARGETING TUBULIN, CH-TOG, AURORA A KINASE, TPX2, CDK5RAP2 AND/OR ASPM” (VALORBEC, SEC, priority 2017, published 2020).

In assay [1] the target is Purified free alpha and beta tubulin dimers (Homo sapiens, UniProt P07437+Q71U36). Put plainly: Microtubule polymerization in vitro. It counts as biochemical. Conditions: 35 minutes at 37° C., Mg2+ and GTP, 20% glycerol buffer. On the procedure:
FIG. 10 is a graph showing microtubule polymerization in vitro in the presence of 200 nM C75 or DMSO (control). Bars show SEM. Microtubules fail to polymerize in the presence of C75, but not in control samples, showing that tubulin could be a target of C75 in vitro.
Purified free alpha and beta tubulin dimers were added at a concentration of […] to a 20% glycerol buffer and allowed to polymerize in the presence of Mg^2+ and GTP for 35 minutes at 37° C. While DMSO had no effect on microtubule polymerization, 200 nM of C75 prevented polymerization. […] This supports that C75 binds tubulin at a different site compared to other microtubule-depolymerizing drugs.

Another assay relates to HFF-1 cells. In words: Viability IC50, high-throughput automated analysis (Table 4). Conditions: Homo sapiens, 3 population doubling times. It counts as cell-based. The procedure:
(§1) FIG. 1A) is a line graph showing changes in the percentage of viable HFF-1, HeLa, A549 and HCT 116 cells after treatment with a range of C75 concentrations for 3 population doubling times (N=3). […] There were more rounded mitotic cells after C75 treatment in comparison to the control. FIG. 1C) is a line graph showing the percentage of HeLa and HFF1 cells in mitosis after treatment with various concentrations of C75 for 8 hours. The bars indicate standard deviation. FIG. 1D) is a series of images showing cells that were fixed and co-stained for tubulin (microtubules) and DAPI (DNA). Treatment of HeLa cells with 300 nM C75 caused the mitotic spindles to be disorganized, while they were not affected in HFF1 cells. […] The scale bar for the cells is 10 μm. […] FIG. 1F) is a cartoon schematic showing the key features of a metaphase cell.
(§2) The images in FIG. 1B) show fields of view of HeLa cells treated with (dimethyl sulfoxide) DMSO or 500 nM of C75. […] Higher concentrations of C75 caused spindle phenotypes in HFF1 cells, but they were quite different in comparison to HeLa cells (FIG. 1D).

A further assay has as its system HCT 116 cells. Described as above. It counts as cell-based. Conditions: Homo sapiens, 3 population doubling times. The procedure: as §1, §2
The subject of assay [2] is H1299 (non-small cell lung cancer) cells. In words: Mitotic arrest after one population doubling time. The class given is cell-based, human. The settings on record: H1299, least responsive. The source says: For each condition, 20,000 cells were counted per replicate (N=3). Line graphs (right) were made to better illustrate the relative changes in the cell cycle phases for the different treatments. Bars show standard deviation. The asterisks indicate the first statistically significant change in the G0/G1 and G2/M populations determined by a two-way ANOVA with a post-hoc Tukey's multiple comparisons test using 95% confidence intervals. FIG. 2B) is a line graph showing the percentage of HCT116 (p53−/−) cells, A549 cells, HeLa cells and H1299 cells in mitosis after treatment with various concentrations of C75 for one population doubling time. All of the cell lines show an increase in the proportion of mitotic cells after treatment with 200 nM C75. The bars indicate standard deviation. […]
C75 was also tested for efficacy in different cancer cell lines. […] To further assess the role of C75 in disrupting spindles, HeLa cells were treated with 300 nM C75 for 4 hours and the spindle phenotypes were analyzed in more detail (FIG. 2E). […] To assess the affect of C75 on centrosomes, HeLa cells were treated with C75 or nocodazole (a drug that causes microtubule depolymerization as a control) for a short period of time (5 minutes), then the drugs were removed and the cells were analyzed for spindle phenotypes (schematic in FIG. 2G). […]

In assay [3] the test system is HeLa cells with lower levels of endogenous ch-TOG (ch-TOG RNAi). Put plainly: Spindle phenotypes with ch-TOG RNAi. The class given is cell-based, human. The settings on record: 200 nM C75 or 20 nM colchicine. The text has this:
FIG. 7B) is a bar graph showing the proportion of phenotypes of the HeLa cells observed in the different conditions listed in 7A) (bipolar spindles in light grey; bipolar spindles with misaligned chromosomes in dark grey; multipolar/fragmented spindles in hatched lines; monopolar spindles in black).

For a further assay, the system named is HeLa cells. In words: Viability IC50 of C75 in combination with subthreshold tubulin-targeting drug. It counts as cell-based, human. The source says:
Bars show standard deviation. […] The bars indicate standard deviation. […] The bars indicate standard deviation. […] The scale bar for all cells is 10 μm.
Bars show standard deviation. […] The scale bar for all cells is 10 μm. In FIG. 4F), bar graphs show changes in the proportion of HCT 116 cells with the different spindle phenotypes as in FIG. 4D (n=2368; N=3). […] Bars indicate standard deviation.

With `COc1ccc(S(=O)(=O)N2Cc3ccccc3-c3sc(Br)cc32)cc1` [Compound C75], in assay [1], the “concentration that prevented microtubule polymerization” value turned out to be 200 nM. The IC50 with HFF-1 cells stood at 789 nM; with HCT 116 cells, 431 nM. The “concentration at which mitotic cells show a small increase” value in assay [2] is listed as 200 nM. For the same molecule, the “interaction with ch-TOG RNAi, fragmented spindle phenotype” value in assay [3] is “additive effect”. Also, the “lowering of the IC50 of C75 by subthreshold colchicine” value with HeLa cells (+ 3 nM colchicine) was about 2 fold. In addition, the “reduction of the IC50 of C75 by subthreshold paclitaxel” value in the assay with HeLa cells (+ 3 nM paclitaxel) is on record as about 2 fold.

A word on the IC50: it is the concentration needed to halve the response being measured. A high value points to weaker potency in that assay.
